Test [1] concerns the target T1, SP166 (Homo sapiens, UniProt Q9BXA5, L244P).
T1 construct: expressed in transfected cells; host or cells: BAF/3 (murine IL-3 dependent B-cell line), retroviral transduction, G418 selection
T1 sequence (Q9BXA5 1-334 L244P): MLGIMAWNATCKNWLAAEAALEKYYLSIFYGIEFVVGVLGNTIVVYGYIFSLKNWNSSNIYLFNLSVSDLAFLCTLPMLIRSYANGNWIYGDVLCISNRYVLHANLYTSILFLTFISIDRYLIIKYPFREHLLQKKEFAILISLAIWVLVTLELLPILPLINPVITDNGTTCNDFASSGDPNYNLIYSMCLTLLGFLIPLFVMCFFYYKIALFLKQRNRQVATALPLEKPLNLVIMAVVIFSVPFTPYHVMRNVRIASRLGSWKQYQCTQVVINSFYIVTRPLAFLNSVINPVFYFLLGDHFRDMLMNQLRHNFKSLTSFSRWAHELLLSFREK
Briefly: FLIPR intracellular Ca++ flux assay in BAF/3 cells stably transfected with SP166. Type of test: cell-based.

For a further test, the system named is mock transfected cells. In words: FLIPR intracellular Ca++ flux assay in mock transfected cells.
Test [2] deals with T1, SP166. In words: Radioligand saturation and competition binding assay with [3H]-NECA on membranes of cells transfected with SP166. To be noted: radioligand saturation and competition assays. The method, then: Membrane preparation: Cells transfected with SP166 as described above were harvested by incubating in 5 mM EDTA/phosphate-buffered saline followed by repeated pipetting. The cells were centrifuged 5 min at 1000×g. The EDTA/PBS was decanted and an equal volume of ice-cold 50 mM Tris-HCl, pH 7.5, was added and cells were broken up with a Polytron (PT10 tip, setting 5, 30 sec). Nuclei and unbroken cells were sedimented at 1000×g for 10 min and then the supernatant was centrifuged at 50,000×g for 10 min. The supernatant was decanted, the pellet was resuspended by Polytron, a sample was taken for protein assay (bicinchoninic acid, Pierce), and the tissue was again centrifuged at 50,000×g. Pellets were stored frozen at […].
Binding assay: For saturation binding, four concentrations of [^3H]-NECA were incubated without and with 10^−5 M adenosine in triplicate with 50 ug of membrane protein in a total volume of 200 μl of 50 mM Tris-HCl, pH 7.5, for 30 min at 30° C. Samples were filtered on GF/B filters and washed thrice with 2 ml of cold Tris buffer. Filters were dried in a microwave oven, impregnated with Meltilex wax scintillant, and counted at 45% efficiency. For competition binding assays, five concentrations of compounds were incubated in triplicate with 18 nM [^3H]NECA and 70 μg of membrane protein under the conditions described above. […]

The values that follow come from patent US7465789B2, “Adenosine receptor” (Schering Corporation, priority 2001, dated 2008).

Description for mock transfected cells: To generate stable transfectants, full-length expression constructs were made in the murine IL-3 dependent B-cell line, BAF/3. Human SP166 was cloned into the retroviral vector, pMX-CD8-myc with 5′ EcoR1 and 3′ Not1 sites. […] To generate high-titer retroviral stock, the ecotropic packaging line BOSC 23 was used as described (Onishi, et al. 1996). Culture supernatants from these cells, containing viral particles, were used to infect BAF/3 cells. Transfectants underwent selection with 1 mg/ml G418 and were further enriched by fluorescence-activated cell sorting and single cell cloning using anti-myc antibody to the N-terminal myc tag.
For the assay, growth media was removed and replaced with medium containing RPMI, 10% FBS, and 1 mM Fluo3-AM (Sigma) (dissolved in 10% pluronic acid in DMSO). […] 50,000 cells in a volume of 100 ml were added to the plates, and the plates were placed into a Fluorescent Imaging Plate Reader (FLIPR, Molecular Devices) equilibrated to 37° C. In the FLIPR, changes in intracellular [Ca^++] levels were measured by excitation of Fluo3 fluorescence at 488 nm while fluorescence output was monitored at 500-560 nm. Fluorescence was monitored once per second for 1 minute, and every 6 seconds for 2 minutes thereafter. […] Values extracted for data analysis represented the maximal fluorescence value minus the minimal fluorescence value detected following, the drug addition. […]

For the compound `Nc1ncnc2c1ncn2[C@@H]1O[C@H](CO)[C@@H](O)[C@H]1O` [adenosine], the “activation of SP166 (change in intracellular Ca++)” value on SP166 [1] (naturally occurring nucleotides and nucleosides examined, SP166-transfected BAF/3 cells) is on record as “specifically activated”. The “activation by adenosine in mock transfected cells” value in the test with mock transfected cells was “not observed”. The “binding to the cloned receptor” value at SP166 [2] is “able to bind”.
In the case of (R)α-methyladenosine, the “activation of SP166 by adenosine analogs” value on SP166 [1] is “able to activate”.
The same measure, in the same setting: the entry for (S)α-methyladenosine is “inactive”; for Nα-methyladenosine it is “able to activate”.
